According to US8778925B2, “Pyridine and pyrimidine based compounds as Wnt signaling pathway inhibitors for the treatment of cancer” (Cancer Research Technology Ltd., priority 2008, dated 2014):
pIC50: −log10 of the molar value.

System: Wnt pathway
Test: Luciferase reporter cell based assay (ER-DSH HEK293 cells)
Conditions: Homo sapiens, TCF-dependent transcription induced by estrogen (2 μM), reporter activity at 24 hours, read-out: IC50 in Luciferase reporter assay (ER-DSH HEK293 cells) assay described in Example 92
Protocol: Inhibitory activity of the Wnt pathway was assessed using a luciferase reporter cell based assay. A luciferase reporter cell line was developed in HEK293 cells, which contained an estrogen receptor-DSH (ER-DSH) construct and a TCF-luciferase-IRES-GFP construct.
A high-throughput assay was performed by inducing TCF-dependent transcription in the ER-DSH HEK293 cell line by the addition of estrogen (2 μM) resulting in at least a 14-fold increase in reporter activity measured at 24 hours. […]

Structure (SMILES)	pIC50
COc1ccc(-c2cncc(Cl)c2N2CCC(C(N)=O)CC2)cc1OC [Example E4, 1-(3-chloro-5-(3,4-dimethoxyphenyl)pyridin-4-yl)piperidine-4-carboxamide]	6.77
NC(=O)C1CCN(c2ncncc2Br)CC1 [Example E29, 1-(5-bromopyrimidin-4-yl)piperidine-4-carboxamide]	4.79
NC(=O)C1CCN(c2ncncc2-c2ccccc2)CC1 [Example E33, 1-(5-phenylpyrimidin-4-yl)piperidine-4-carboxamide]	5.30
COc1ccc(-c2cnccc2N2CCC(C(N)=O)CC2)cc1 [Example E37, 1-(3-(4-methoxyphenyl)pyridin-4-yl)piperidine-4-carboxamide]	5.79
COc1ccc(-c2cncc(Cl)c2N2CCC(C(N)=O)CC2)cc1 [Example E43, 1-(3-chloro-5-(4-methoxyphenyl)pyridin-4-yl)piperidine-4-carboxamide]	7.49
O=C1NCCC12CCN(c1c(Cl)cncc1-c1ccccc1)CC2 [Example E60, 8-(3-chloro-5-phenylpyridin-4-yl)-2,8-diazaspiro[4.5]decan-1-one]	7.48
NC(=O)C1CCN(c2ccncc2-c2ccccc2)CC1 [Example E68, 1-(3-phenylpyridin-4-yl)piperidine-4-carboxamide]	5.94
COc1ccc(-c2cncc(Cl)c2N2CCC(C(N)=O)C2)cc1 (stereo not shown) [Example E74, 1-(3-chloro-5-(4-methoxyphenyl)pyridin-4-yl)pyrrolidine-3-carboxamide]	6.59
COc1ccc(-c2cncnc2N2CCC(C(N)=O)CC2)cc1 [Example E85, 1-(5-(4-methoxyphenyl)pyrimidin-4-yl)piperidine-4-carboxamide]	5.80
N#CC1CCN(c2c(Cl)cncc2-c2ccccc2)CC1 [Example E86, 1-(3-chloro-5-phenylpyridin-4-yl)piperidine-4-carbonitrile]	7.05

Next, values leading:

pIC50	Structure (SMILES)
4.90	CNC(=O)C1CCN(c2c(Cl)cncc2Cl)CC1 [Example E1, 1-(3,5-dichloropyridin-4-yl)-N-methylpiperidine-4-carboxamide]
4.52	CN(C)C(=O)C1CCN(c2c(Cl)cncc2Cl)CC1 [Example E2, 1-(3,5-dichloropyridin-4-yl)-N,N-dimethylpiperidine-4-carboxamide]
4.92	CC(=O)N1CCN(c2c(Cl)cncc2Cl)CC1 [Example E9, 1-(4-(3,5-dichloropyridin-4-yl)piperazin-1-yl)ethanone]
4.64	NC(=O)C1CCN(c2ccncc2Cl)CC1 [Example E12, 1-(3-chloropyridin-4-yl)piperidine-4-carboxamide]
5.15	NCCNC(=O)C1CCN(c2c(Cl)cncc2Cl)CC1 [Example E13, N-(2-aminoethyl)-1-(3,5-dichloropyridin-4-yl)piperidine-4-carboxamide]
6.12	NC(=O)C1CCN(c2c(Cl)cncc2Cl)C1 (stereo not shown) [Example E21, 1-(3,5-dichloropyridin-4-yl)pyrrolidine-3-carboxamide]
6.68	NC(=O)C1CCN(c2c(Br)cncc2Br)CC1 [Example E27, 1-(3,5-dibromopyridin-4-yl)piperidine-4-carboxamide]
5.12	Clc1cncc(Cl)c1N1CCC(c2ncco2)CC1 [Example E35, 2-(1-(3,5-dichloropyridin-4-yl)piperidin-4-yl)oxazole]
6.36	Cc1nn(C)cc1-c1cncc(Cl)c1N1CCC(C(N)=O)CC1 [Example E47, 1-(3-chloro-5-(1,3-dimethyl-1H-pyrazol-4-yl)pyridin-4-yl)piperidine-4-carboxamide]
6.96	NC(=O)C1CCN(c2c(Cl)cncc2-c2ccc(F)cc2)CC1 [Example E50, 1-(3-chloro-5-(4-fluorophenyl)pyridin-4-yl)piperidine-4-carboxamide]
5.46	O=C1NCCC12CCN(c1c(Cl)cncc1Cl)CC2 [Example E59, 8-(3,5-dichloropyridin-4-yl)-2,8-diazaspiro[4.5]decan-1-one]
6.36	NC(=O)C1CCN(c2c(Cl)cncc2-c2ccncc2)CC1 [Example E65, 1-(5-chloro-3,4′-bipyridin-4-yl)piperidine-4-carboxamide]
6.13	O=C(O)C1CCN(c2c(Cl)cncc2-c2ccccc2)CC1 [Example E87, 1-(3-chloro-5-phenylpyridin-4-yl)piperidine-4-carboxylic acid]

System: not given
Test: not given
Conditions: not given

Structure (SMILES)	melting point [°C]
NC(=O)C1CCN(c2ncncc2Cl)CC1	201 to 202
Cc1cncnc1N1CCC(C(N)=O)CC1	182 to 184
O=C(NCCN(Cc1ccccc1)Cc1ccccc1)C1CCN(c2c(Cl)cncc2Cl)CC1 [Example E17, N-(2-(dibenzylamino)ethyl)-1-(3,5-dichloropyridin-4-yl)piperidine-4-carboxamide]	147 to 149
N#CC1CCN(c2c(Br)cncc2Br)C1 (stereo not shown) [Example E23, 1-(3,5-dibromopyridin-4-yl)pyrrolidine-3-carbonitrile]	159 to 161
NC(=O)C1CCN(c2ncncc2Br)CC1 [Example E29, 1-(5-bromopyrimidin-4-yl)piperidine-4-carboxamide]	188 to 190
NC(=O)C1CCN(c2c(Br)cncc2-c2ccccc2)CC1 [Example E39, 1-(3-bromo-5-phenylpyridin-4-yl)piperidine-4-carboxamide]	220 to 222

Now from value to compound:

melting point [°C]	Structure (SMILES)
132 to 134	O=C(c1ccccc1)N1CCN(c2c(Cl)cncc2Cl)CC1
157 to 159	O=C(NCCNc1c(Cl)cncc1Cl)C1CCN(c2c(Cl)cncc2Cl)CC1 [Example E5, 1-(3,5-dichloropyridin-4-yl)-N-(2-(3,5-dichloropyridin-4-ylamino)ethyl)piperidine-4-carboxamide]
144 to 146	CC(=O)N1CCN(c2c(Cl)cncc2Cl)CC1 [Example E9, 1-(4-(3,5-dichloropyridin-4-yl)piperazin-1-yl)ethanone]
174 to 177	O=C(NCCNCC1CCCCC1)C1CCN(c2c(Cl)cncc2Cl)CC1 [Example E16, N-(2-(cyclohexylmethylamino)ethyl)-1-(3,5-dichloropyridin-4-yl)piperidine-4-carboxamide]
236 to 238	O=C(NCCN(CC1CCCCC1)CC1CCCCC1)C1CCN(c2c(Cl)cncc2Cl)CC1 [Example E18, N-(2-(bis(cyclohexylmethyl)amino)ethyl)-1-(3,5-dichloropyridin-4-yl)piperidine-4-carboxamide]
209 to 211	O=C(NCCNC(=O)C1CCN(c2c(Cl)cncc2Cl)CC1)c1ccccc1 [Example E19, N-(2-benzamidoethyl)-1-(3,5-dichloropyridin-4-yl)piperidine-4-carboxamide]
256 to 258	O=C(C1CCN(c2c(Cl)cncc2Cl)CC1)N1CCNCC1 [Example E20, (1-(3,5-dichloropyridin-4-yl)piperidin-4-yl)(piperazin-1-yl)methanone]
161 to 163	NC(=O)C1CCN(c2c(Cl)cncc2Cl)C1 (stereo not shown) [Example E21, 1-(3,5-dichloropyridin-4-yl)pyrrolidine-3-carboxamide]
